Measurements taken from patent US20140058103A1, “Inhibitors of PI3K-Delta and Methods of Their Use and Manufacture” (Exelixis, Inc., priority 2010, published 2014).

Target: PI3K delta (Homo sapiens, UniProt O00329)
Assay: Luciferase-coupled chemiluminescence kinase assay (ATP consumption, KinaseGlo)
Assay type: biochemical
Method: Kinase activity and compound inhibition were investigated using one or more of the assay formats described below. The ATP concentrations used in the various assays were approximately equal to or less than the KM for each of the respective kinases. Dose-response experiments were performed using an intra-plate dilution scheme with 10 different inhibitor concentrations in a 384-well microtiter plate. IC50 values were calculated by nonlinear regression analysis using the four-parameter equation listed below:
Y=min+(max−min)/(1+(X/IC50)^N) Equation 1
Typically N should approximate unity. Curve fitting was performed using XLFit or ActivityBase.
Kinase activity is measured as the percent of ATP consumed following the kinase reaction using luciferase-luciferin-coupled chemiluminescence. […] Kinase reactions were initiated by combining test compounds, kinase, and ATP in a 20 μL volume (6 μL volume for 1536-well plate). The reaction mixture was incubated at ambient temperature for 2 h. Following the kinase reaction, a 20 μL (or […] for 1536-well plate) aliquot of KinaseGlo (Promega) was added and the chemiluminescence signal measured using an EnVision plate reader (Perkin Elmer).

Chain of PI3K delta (O00329 whole entry): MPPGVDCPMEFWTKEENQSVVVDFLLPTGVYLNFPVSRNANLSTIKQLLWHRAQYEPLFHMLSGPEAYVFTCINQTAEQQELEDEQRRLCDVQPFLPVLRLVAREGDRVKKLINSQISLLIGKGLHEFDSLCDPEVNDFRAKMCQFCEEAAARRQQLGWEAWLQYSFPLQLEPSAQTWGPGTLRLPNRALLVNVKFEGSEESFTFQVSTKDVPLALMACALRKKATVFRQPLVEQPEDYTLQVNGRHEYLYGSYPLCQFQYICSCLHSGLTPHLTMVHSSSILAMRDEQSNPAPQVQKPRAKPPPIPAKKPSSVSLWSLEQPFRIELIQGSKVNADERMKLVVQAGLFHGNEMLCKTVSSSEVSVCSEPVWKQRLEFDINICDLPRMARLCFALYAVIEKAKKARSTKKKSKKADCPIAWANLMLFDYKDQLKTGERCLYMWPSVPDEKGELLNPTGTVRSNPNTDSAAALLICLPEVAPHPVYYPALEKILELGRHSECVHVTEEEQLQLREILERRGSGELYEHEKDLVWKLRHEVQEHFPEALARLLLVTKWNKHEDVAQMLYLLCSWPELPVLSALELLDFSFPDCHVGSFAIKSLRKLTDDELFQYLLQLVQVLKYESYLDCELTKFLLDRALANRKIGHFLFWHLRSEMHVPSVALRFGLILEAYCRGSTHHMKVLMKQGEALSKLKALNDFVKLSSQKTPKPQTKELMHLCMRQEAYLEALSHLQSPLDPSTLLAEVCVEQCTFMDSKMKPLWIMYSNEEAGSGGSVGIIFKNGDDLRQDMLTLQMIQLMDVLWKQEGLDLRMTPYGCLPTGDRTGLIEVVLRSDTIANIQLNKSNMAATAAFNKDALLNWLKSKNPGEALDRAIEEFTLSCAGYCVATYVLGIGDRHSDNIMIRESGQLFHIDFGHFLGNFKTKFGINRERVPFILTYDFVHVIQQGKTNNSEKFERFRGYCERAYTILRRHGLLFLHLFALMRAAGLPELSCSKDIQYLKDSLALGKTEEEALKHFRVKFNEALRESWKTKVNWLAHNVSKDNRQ
Chain of PI3K delta (P27986 whole entry partner): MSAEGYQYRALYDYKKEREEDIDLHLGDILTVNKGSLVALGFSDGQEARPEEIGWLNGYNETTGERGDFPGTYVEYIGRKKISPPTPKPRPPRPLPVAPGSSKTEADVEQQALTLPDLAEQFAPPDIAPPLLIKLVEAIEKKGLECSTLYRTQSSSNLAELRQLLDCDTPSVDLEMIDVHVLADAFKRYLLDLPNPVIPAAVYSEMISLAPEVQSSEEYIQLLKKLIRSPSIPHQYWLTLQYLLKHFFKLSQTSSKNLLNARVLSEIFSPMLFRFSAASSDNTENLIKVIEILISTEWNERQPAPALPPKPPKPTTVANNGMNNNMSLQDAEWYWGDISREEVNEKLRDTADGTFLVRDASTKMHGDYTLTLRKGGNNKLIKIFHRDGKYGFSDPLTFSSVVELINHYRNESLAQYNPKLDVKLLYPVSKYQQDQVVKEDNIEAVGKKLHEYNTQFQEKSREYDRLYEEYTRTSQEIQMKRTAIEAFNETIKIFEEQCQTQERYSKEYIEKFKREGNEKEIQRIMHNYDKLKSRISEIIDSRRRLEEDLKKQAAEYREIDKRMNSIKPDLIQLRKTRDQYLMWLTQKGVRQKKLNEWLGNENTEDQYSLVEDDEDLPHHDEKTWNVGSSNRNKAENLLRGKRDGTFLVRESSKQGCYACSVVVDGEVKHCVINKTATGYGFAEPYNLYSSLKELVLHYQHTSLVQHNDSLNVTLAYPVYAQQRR

Row | SMILES | IC50
1 | Cn1cc(-c2nc3c(N4CCC(CN)(c5ccccc5)CC4)ncnc3n2C)cn1 [Compound 1, 1-{1-[9-methyl-8-(1-methyl-1H-pyrazol-4-yl)-9H-purin-6-yl]-4-phenylpiperidin-4-yl}methanamine] | 500 to 1500 nM
2 | Cc1nc(-c2ccccc2)n(OCC2CCN(c3ncnc4c3nc(-c3cnn(C)c3)n4C)CC2)c1C [Compound 2, 6-(4-(((4,5-Dimethyl-2-phenyl-1H-imidazol-1-yl)oxy)methyl)piperidin-1-yl)-9-methyl-8-(1-methyl-M-pyrazol-4-yl)-9H-purine] | 500 to 1500 nM
3 | Cn1c(C(=O)NCC2CC2)nc2c(N3CCC(O)(c4ccccc4)CC3)ncnc21 [Compound 3, N-(cyclopropylmethyl)-6-(4-hydroxy-4-phenylpiperidin-1-yl)-9-methyl-9H-purine-8-carboxamide] | 50 to 250 nM
4 | Cn1c(C(=O)NCC2CCOCC2)nc2c(N3CCC(n4c(=O)[nH]c5ccccc54)CC3)ncnc21 [Compound 5, 9-methyl-6-[4-(2-oxo-2,3-dihydro-1H-benzimidazol-1-yl)piperidin-1-yl]-N-(tetrahydro-2H-pyran-4-ylmethyl)-9H-purine-8-carboxamide] | < 50 nM
5 | Cn1c(C(=O)NCC2CC2)nc2c(N3CCC4(CC3)C(=O)Nc3ccccc34)ncnc21 [Compound 6, N-(Cyclopropylmethyl)-9-methyl-6-(2-oxo-1,2-dihydro-1′H-spiro[indole-3,4′-piperidin]-1′-yl)-9H-purine-8-carboxamide] | 50 to 250 nM
6 | CN(C)C(=O)c1nc2c(N3CCC4(CC3)C(=O)NCN4c3ccccc3)ncnc2n1C [Compound 7, N,N,9-Trimethyl-6-(4-oxo-1-phenyl-1,3,8-triazaspiro[4.5]dec-8-yl)-9H-purine-8-carboxamide] | 500 to 1500 nM
7 | Cn1c(C(=O)N2CCCC2)nc2c(N3CCC4(CC3)C(=O)NCN4c3ccccc3)ncnc21 [Compound 8, 8-[9-methyl-8-(pyrrolidin-1-ylcarbonyl)-9H-purin-6-yl]-1-phenyl-1,3,8-triazaspiro[4.5]decan-4-one] | 250 to 500 nM
8 | Cn1c(C(=O)N2CCCCC2)nc2c(N3CCC4(CC3)C(=O)NCN4c3ccccc3)ncnc21 [Compound 9, 8-[9-methyl-8-(piperidin-1-ylcarbonyl)-9H-purin-6-yl]-1-phenyl-1,3,8-triazaspiro[4.5]decan-4-one] | 50 to 250 nM
9 | CN(C)C1CN(C(=O)c2nc3c(N4CCC5(CC4)C(=O)NCC5c4ccccc4)ncnc3n2C)C1 (centres unmarked) [Compound 10] | 500 to 1500 nM
10 | Cn1c(C(=O)NCC2CCCOC2)nc2c(N3CCC(n4c(=O)[nH]c5ccccc54)CC3)ncnc21 (centres unmarked) [Compound 11, 9-methyl-6-[4-(2-oxo-2,3-dihydro-1H-benzimidazol-1-yl)piperidin-1-yl]-N-(tetrahydro-2H-pyran-3-ylmethyl)-9H-purine-8-carboxamide] | 250 to 500 nM
11 | Cn1c(C(=O)NCC2(O)CC2)nc2c(N3CCC(n4c(=O)[nH]c5ccccc54)CC3)ncnc21 [Compound 12, N-[(1-hydroxycyclopropyl)methyl]-9-methyl-6-[4-(2-oxo-2,3-dihydro-1H-benzimidazol-1-yl)piperidin-1-yl]-9H-purine-8-carboxamide] | 50 to 250 nM
12 | Cn1c(C(=O)NCCCCO)nc2c(N3CCC4(CC3)C(=O)Nc3ccccc34)ncnc21 [Compound 13, N-(4-hydroxybutyl)-9-methyl-6-(2-oxo-1,2-dihydro-1′H-spiro[indole-3,4′-piperidin]-1′-yl)-9H-purine-8-carboxamide] | 50 to 250 nM
13 | Cn1c(C(=O)NC2CC2)nc2c(N3CCC4(CC3)C(=O)Nc3ccccc34)ncnc21 [Compound 14, N-cyclopropyl-9-methyl-6-(2-oxo-1,2-dihydro-1′H-spiro[indole-3,4′-piperidin]-1′-yl)-9H-purine-8-carboxamide] | 50 to 250 nM
14 | Cn1c(C(=O)NC2CCC2)nc2c(N3CCC4(CC3)C(=O)Nc3ccccc34)ncnc21 [Compound 15, N-cyclobutyl-9-methyl-6-(2-oxo-1,2-dihydro-1′H-spiro[indole-3,4′-piperidin]-1′-yl)-9H-purine-8-carboxamide] | 50 to 250 nM
15 | CCCCNC(=O)c1nc2c(N3CCC4(CC3)C(=O)Nc3ccccc34)ncnc2n1C [Compound 16, N-butyl-9-methyl-6-(2-oxo-1,2-dihydro-1′H-spiro[indole-3,4′-piperidin]-1′-yl)-9H-purine-8-carboxamide] | 50 to 250 nM
16 | Cn1c(C(=O)NCc2ccco2)nc2c(N3CCC4(CC3)C(=O)Nc3ccccc34)ncnc21 [Compound 17, N-(furan-2-ylmethyl)-9-methyl-6-(2-oxo-1,2-dihydro-1′H-spiro[indole-3,4′-piperidin]-1′-yl)-9H-purine-8-carboxamide] | 50 to 250 nM
17 | Cn1c(C(=O)NC2CCc3ccccc32)nc2c(N3CCC4(CC3)C(=O)Nc3ccccc34)ncnc21 (centres unmarked) [Compound 18, N-(2,3-dihydro-1H-inden-1-yl)-9-methyl-6-(2-oxo-1,2-dihydro-1′H-spiro[indole-3,4′-piperidin]-1′-yl)-9H-purine-8-carboxamide] | 250 to 500 nM

More lines, now with the values ahead:

Row | IC50 | SMILES
18 | 50 to 250 nM | Cn1c(C(=O)NCCCO)nc2c(N3CCC4(CC3)C(=O)Nc3ccccc34)ncnc21 [Compound 19, N-(3-hydroxypropyl)-9-methyl-6-(2-oxo-1,2-dihydro-1′H-spiro[indole-3,4′-piperidin]-1′-yl)-9H-purine-8-carboxamide]
19 | 50 to 250 nM | Cn1c(C(=O)NCc2cccs2)nc2c(N3CCC4(CC3)C(=O)Nc3ccccc34)ncnc21 [Compound 20, 9-methyl-6-(2-oxo-1,2-dihydro-1′H-spiro[indole-3,4′-piperidin]-1′-yl)-N-(2-thienylmethyl)-9H-purine-8-carboxamide]
20 | 500 to 1500 nM | Cn1c(C(=O)NCCc2ccccn2)nc2c(N3CCC4(CC3)C(=O)Nc3ccccc34)ncnc21 [Compound 21, 9-methyl-6-(2-oxo-1,2-dihydro-1′H-spiro[indole-3,4′-piperidin]-1′-yl)-N-(2-pyridin-2-ylethyl)-9H-purine-8-carboxamide]
21 | 50 to 250 nM | Cn1c(C(=O)NCc2ccncc2)nc2c(N3CCC4(CC3)C(=O)Nc3ccccc34)ncnc21 [Compound 22, 9-methyl-6-(2-oxo-1,2-dihydro-1′H-spiro[indole-3,4′-piperidin]-1′-yl)-N-(pyridin-4-ylmethyl)-9H-purine-8-carboxamide]
22 | 500 to 1500 nM | CC(NC(=O)c1nc2c(N3CCC4(CC3)C(=O)Nc3ccccc34)ncnc2n1C)c1ccccc1 (centres unmarked) [Compound 23, 9-methyl-6-(2-oxo-1,2-dihydro-1′H-spiro[indole-3,4′-piperidin]-1′-yl)-N-(1-phenylethyl)-9H-purine-8-carboxamide]
23 | 50 to 250 nM | CC(C)NC(=O)c1nc2c(N3CCC4(CC3)C(=O)Nc3ccccc34)ncnc2n1C [Compound 24, 9-methyl-N-(1-methylethyl)-6-(2-oxo-1,2-dihydro-1′H-spiro[indole-3,4′-piperidin]-1′-yl)-9H-purine-8-carboxamide]
24 | 250 to 500 nM | Cn1c(C(=O)NCCO)nc2c(N3CCC4(CC3)C(=O)Nc3ccccc34)ncnc21 [Compound 25, N-(2-hydroxyethyl)-9-methyl-6-(2-oxo-1,2-dihydro-1′H-spiro[indole-3,4′-piperidin]-1′-yl)-9H-purine-8-carboxamide]
25 | 500 to 1500 nM | COc1ccccc1CNC(=O)c1nc2c(N3CCC4(CC3)C(=O)Nc3ccccc34)ncnc2n1C [Compound 26, 9-methyl-N-([2-(methyloxy)phenyl]methyl)-6-(2-oxo-1,2-dihydro-1′H-spiro[indole-3,4′-piperidin]-1′-yl)-9H-purine-8-carboxamide]
26 | 500 to 1500 nM | Cc1ccccc1CNC(=O)c1nc2c(N3CCC4(CC3)C(=O)Nc3ccccc34)ncnc2n1C [Compound 27, 9-methyl-N-[(2-methylphenyl)methyl]-6-(2-oxo-1,2-dihydro-1′H-spiro[indole-3,4′-piperidin]-1′-yl)-9H-purine-8-carboxamide]
27 | 250 to 500 nM | Cn1c(C(=O)NCc2cccc(F)c2)nc2c(N3CCC4(CC3)C(=O)Nc3ccccc34)ncnc21 [Compound 28, N-[(3-fluorophenyl)methyl]-9-methyl-6-(2-oxo-1,2-dihydro-1′H-spiro[indole-3,4′-piperidin]-1′-yl)-9H-purine-8-carboxamide]
28 | 500 to 1500 nM | COc1ccc(CNC(=O)c2nc3c(N4CCC5(CC4)C(=O)Nc4ccccc45)ncnc3n2C)cc1 [Compound 29, 9-methyl-N-([4-(methyloxy)phenyl]methyl)-6-(2-oxo-1,2-dihydro-1′H-spiro[indole-3,4′-piperidin]-1′-yl)-9H-purine-8-carboxamide]
29 | < 50 nM | Cn1c(C(=O)NCC(F)(F)F)nc2c(N3CCC4(CC3)C(=O)Nc3ccccc34)ncnc21 [Compound 30, 9-methyl-6-(2-oxo-1,2-dihydro-1′H-spiro[indole-3,4′-piperidin]-1′-yl)-N-(2,2,2-trifluoroethyl)-9H-purine-8-carboxamide]
30 | 500 to 1500 nM | CC(CNC(=O)c1nc2c(N3CCC4(CC3)C(=O)Nc3ccccc34)ncnc2n1C)c1ccccc1 (centres unmarked) [Compound 31, 9-methyl-6-(2-oxo-1,2-dihydro-1′H-spiro[indole-3,4′-piperidin]-1′-yl)-N-(2-phenylpropyl)-9H-purine-8-carboxamide]
31 | 50 to 250 nM | CCNC(=O)c1nc2c(N3CCC4(CC3)C(=O)Nc3ccccc34)ncnc2n1C [Compound 32, N-ethyl-9-methyl-6-(2-oxo-1,2-dihydro-1H-spiro[indole-3,4′-piperidin]-1′-yl)-9H-purine-8-carboxamide]
32 | 500 to 1500 nM | Cn1c(C(=O)NCc2ccc(F)cc2F)nc2c(N3CCC4(CC3)C(=O)Nc3ccccc34)ncnc21 [Compound 33, N-[(2,4-difluorophenyl)methyl]-9-methyl-6-(2-oxo-1,2-dihydro-1′H-spiro[indole-3,4′-piperidin]-1′-yl)-9H-purine-8-carboxamide]
